Experimental data: ChEMBL document CHEMBL1201861, “Genomics of Drug Sensitity in Cancer screening data, Wellcome Trust Sanger Institute”
Values joined by “and” are separate entries in the source; they are usually repeats but may differ in a detail not shown here. Equal values may be shown once.

Assays:
[1] = system: BL-41; assay: cells; assay type: functional, cell-based; settings: Homo sapiens;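 further: growth inhibition of human BL-41 cells, read out with a cell viability assay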
Description: SANGER: Inhibition of human BL-41 cell growth in a cell viability assay.

[2] = system: NCI-H345; assay: cells; assay type: functional, cell-based; settings: Homo sapiens;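 further: growth inhibition of NCI-H345 cells measured with a cell viability assay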
Description: SANGER: Inhibition of human NCI-H345 cell growth in a cell viability assay.

[3] = system: SR; assay: cells; assay type: functional, cell-based; settings: Homo sapiens
Description: SANGER: Inhibition of human SR cell growth in a cell viability assay.

[4] = system: RPMI-6666; assay: cells; assay type: functional, cell-based; settings: Homo sapiens
Description: SANGER: Inhibition of human RPMI-6666 cell growth in a cell viability assay.

[5] = system: RPMI 8402; assay: SANGER: Inhibition of human RPMI-8402 cell growth in a cell viability assay.; assay type: functional, cell-based
[6] = system: NCI-H748; assay: cells; assay type: functional, cell-based; settings: Homo sapiens;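 further: growth inhibition of NCI-H748 cells, measured by a cell viability assay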
Description: SANGER: Inhibition of human NCI-H748 cell growth in a cell viability assay.

[7] = system: KNS-81-FD; assay: cells; assay type: functional, cell-based, Homo sapiens;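 further: growth inhibition of KNS-81-FD cells, read out with a cell viability assay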
Description: SANGER: Inhibition of human KNS-81-FD cell growth in a cell viability assay.

[8] = system: NCCIT; assay: SANGER: Inhibition of human NCCIT cell growth in a cell viability assay.; assay type: functional, cell-based
[9] = system: A704; assay: cells; assay type: functional, cell-based, Homo sapiens;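 further: growth inhibition of human A704 cells, read out with a cell viability assay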
Description: SANGER: Inhibition of human A704 cell growth in a cell viability assay.

[10] = system: LU-165; assay: cells; assay type: functional, cell-based; settings: Homo sapiens
Description: SANGER: Inhibition of human LU-165 cell growth in a cell viability assay.

[11] = system: SNU-16; assay: cells; assay type: functional, cell-based; settings: Homo sapiens;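 further: growth inhibition of human SNU-16 cells, determined with a cell viability readout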
Description: SANGER: Inhibition of human NCI-SNU-16 cell growth in a cell viability assay.

[12] = system: NCI-H2171; assay: cells; assay type: functional, cell-based; settings: Homo sapiens;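 further: growth inhibition of human NCI-H2171 cells, read out by a cell viability assay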
Description: SANGER: Inhibition of human NCI-H2171 cell growth in a cell viability assay.

[13] = system: COR-L279; assay: SANGER: Inhibition of human COR-L279 cell growth in a cell viability assay.; assay type: functional, cell-based
[14] = system: JIYOYE; assay: cells; assay type: functional, cell-based; settings: Homo sapiens
Description: SANGER: Inhibition of human JiyoyeP-2003 cell growth in a cell viability assay.

[15] = system: CPC-N; assay: cells; assay type: functional, cell-based; settings: Homo sapiens;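 further: growth inhibition of CPC-N cells, with a cell viability assay as the readout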
Description: SANGER: Inhibition of human CPC-N cell growth in a cell viability assay.

[16] = system: NCI-H1092; assay: cells; assay type: functional, cell-based; settings: Homo sapiens
Description: SANGER: Inhibition of human NCI-H1092 cell growth in a cell viability assay.

[17] = system: TE-441-T; assay: cells; assay type: functional, cell-based; settings: Homo sapiens
Description: SANGER: Inhibition of human TE-441-T cell growth in a cell viability assay.

[18] = system: NCI-H2141; assay: cells; assay type: functional, cell-based; settings: Homo sapiens;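 further: growth inhibition of human NCI-H2141 cells, read out with a cell viability assay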
Description: SANGER: Inhibition of human NCI-H2141 cell growth in a cell viability assay.

[19] = system: NB7; assay: cells; assay type: functional, cell-based; settings: Homo sapiens;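 further: growth inhibition of NB7 cells, read out with a cell viability assay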
Description: SANGER: Inhibition of human NB7 cell growth in a cell viability assay.

[20] = system: NCI-H716; assay: cells; assay type: functional, cell-based; settings: Homo sapiens;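 further: growth inhibition of human NCI-H716 cells, measured by a cell viability assay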
Description: SANGER: Inhibition of human NCI-H716 cell growth in a cell viability assay.

[21] = system: SW872; assay: cells; assay type: functional, cell-based, Homo sapiens;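 further: growth inhibition of SW872 cells, read out by a viability assay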
Description: SANGER: Inhibition of human SW872 cell growth in a cell viability assay.

[22] = system: NALM-6; assay: cells; assay type: functional, cell-based; settings: Homo sapiens;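 further: growth inhibition of NALM-6 cells, read out with a cell viability assay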
Description: SANGER: Inhibition of human NALM-6 cell growth in a cell viability assay.

[23] = system: SNU-C1; assay: cells; assay type: functional, cell-based; settings: Homo sapiens;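 further: growth inhibition of SNU-C1 human cells, read out by a cell viability assay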
Description: SANGER: Inhibition of human SNU-C1 cell growth in a cell viability assay.

[24] = system: NOMO-1; assay: cells; assay type: functional, cell-based; settings: Homo sapiens;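 further: growth inhibition of human NOMO-1 cells measured by a cell viability assay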
Description: SANGER: Inhibition of human NOMO-1 cell growth in a cell viability assay.

[25] = system: NCI-H1436; assay: cells; assay type: functional, cell-based; settings: Homo sapiens;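 further: growth suppression of human NCI-H1436 cells, determined with a cell viability readout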
Description: SANGER: Inhibition of human NCI-H1436 cell growth in a cell viability assay.

[26] = system: ARH-77; assay: cells; assay type: functional, cell-based; settings: Homo sapiens;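 further: growth inhibition of ARH-77 cells, read out by a cell viability assay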
Description: SANGER: Inhibition of human ARH-77 cell growth in a cell viability assay.

[27] = system: LAMA-84; assay: cells; assay type: functional, cell-based; settings: Homo sapiens;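 further: growth inhibition of LAMA-84 cells, read out with a cell viability assay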
Description: SANGER: Inhibition of human LAMA-84 cell growth in a cell viability assay.

[28] = system: NCI-H187; assay: cells; assay type: functional, cell-based; settings: Homo sapiens;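 further: growth inhibition of NCI-H187 cells, read out as cell viability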
Description: SANGER: Inhibition of human NCI-H187 cell growth in a cell viability assay.

[29] = system: NCI-H524; assay: cells; assay type: functional, cell-based; settings: Homo sapiens;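 further: growth inhibition of human NCI-H524 cells, read out through a cell viability assay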
Description: SANGER: Inhibition of human NCI-H524 cell growth in a cell viability assay.

[30] = system: NCI-H1648; assay: cells; assay type: functional, cell-based, Homo sapiens;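 further: cell viability assay measuring inhibition of NCI-H1648 cell growth, from the Sanger screening data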
Description: SANGER: Inhibition of human NCI-H1648 cell growth in a cell viability assay.

[31] = system: CMK; assay: cells; assay type: functional, cell-based; settings: Homo sapiens;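 further: growth inhibition of CMK cells, read out as cell viability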
Description: SANGER: Inhibition of human CMK cell growth in a cell viability assay.

[32] = system: SCLC-21H; assay: cells; assay type: functional, cell-based; settings: Homo sapiens;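 further: growth inhibition of cultured human SCLC-21H cells, read out with a cell viability assay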
Description: SANGER: Inhibition of human SCLC-21H cell growth in a cell viability assay.

[33] = system: MOLT-13; assay: cells; assay type: functional, cell-based; settings: Homo sapiens;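 further: IC50 for suppression of MOLT-13 cell growth, read out with a cell viability assay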
Description: SANGER: Inhibition of human MOLT-13 cell growth in a cell viability assay.

[34] = system: NCI-H889; assay: cells; assay type: functional, cell-based; settings: Homo sapiens;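 further: cell growth inhibition of the cell line, read out with a viability assay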
Description: SANGER: Inhibition of human NCI-H889 cell growth in a cell viability assay.

[35] = system: NCI-H1304; assay: cells; assay type: functional, cell-based; settings: Homo sapiens;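 further: growth inhibition of the cancer cell line, measured in a cell viability assay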
Description: SANGER: Inhibition of human NCI-H1304 cell growth in a cell viability assay.

[36] = system: CAL-148; assay: cells; assay type: functional, cell-based; settings: Homo sapiens
Description: SANGER: Inhibition of human CAL-148 cell growth in a cell viability assay.

[37] = system: LAN-6; assay: cells; assay type: functional, cell-based, Homo sapiens;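 further: growth inhibition of LAN-6 cells, determined with a cell viability assay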
Description: SANGER: Inhibition of human LAN-6 cell growth in a cell viability assay.

[38] = system: NCI-H1417; assay: cells; assay type: functional, cell-based; settings: Homo sapiens;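 further: human NCI-H1417 cells, growth inhibition determined with a cell viability readout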
Description: SANGER: Inhibition of human NCI-H1417 cell growth in a cell viability assay.

[39] = system: LB996-RCC; assay: cells; assay type: functional, cell-based; settings: Homo sapiens
Description: SANGER: Inhibition of human LB996-RCC cell growth in a cell viability assay.

[40] = system: IST-SL2; assay: cells; assay type: functional, cell-based; settings: Homo sapiens;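 further: growth inhibition of human IST-SL2 cells, read out by a cell viability assay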
Description: SANGER: Inhibition of human IST-SL2 cell growth in a cell viability assay.

[41] = system: L-540; assay: cells; assay type: functional, cell-based; settings: Homo sapiens;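 further: growth inhibition of the human L-540 cell line, read out with a viability assay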
Description: SANGER: Inhibition of human L-540 cell growth in a cell viability assay.

[42] = system: NCI-H82; assay: cells; assay type: functional, cell-based; settings: Homo sapiens;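 further: growth inhibition of NCI-H82 cells, measured with a cell viability readout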
Description: SANGER: Inhibition of human NCI-H82 cell growth in a cell viability assay.

[43] = system: 8505C; assay: cells; assay type: functional, cell-based, Homo sapiens
Description: SANGER: Inhibition of human 8505C cell growth in a cell viability assay.

[44] = system: OAW-28; assay: cells; assay type: functional, cell-based, Homo sapiens;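 further: growth inhibition of OAW-28 cells, read out with a cell viability assay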
Description: SANGER: Inhibition of human OAW-28 cell growth in a cell viability assay.

[45] = system: HN; assay: cells; assay type: functional, cell-based, Homo sapiens
Description: SANGER: Inhibition of human HN cell growth in a cell viability assay.

[46] = system: HuO9; assay: cells; assay type: functional, cell-based, Homo sapiens;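 further: growth inhibition of HuO9 cells, read out with a cell viability assay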
Description: SANGER: Inhibition of human HuO9 cell growth in a cell viability assay.

[47] = system: SAOS-2; assay: cells; assay type: functional, cell-based, Homo sapiens;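 further: growth inhibition of human Saos-2 cells determined by a cell viability assay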
Description: SANGER: Inhibition of human Saos-2 cell growth in a cell viability assay.

[48] = system: NCI-H810; assay: cells; assay type: functional, cell-based, Homo sapiens;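 further: IC50 reflects inhibition of cancer cell line growth, read out with a cell viability assay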
Description: SANGER: Inhibition of human NCI-H810 cell growth in a cell viability assay.

[49] = system: CAL-33; assay: cells; assay type: functional, cell-based, Homo sapiens;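 further: growth inhibition of CAL-33 cells, read out with a cell viability assay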
Description: SANGER: Inhibition of human CAL-33 cell growth in a cell viability assay.

[50] = system: CAL-62; assay: cells; assay type: functional, cell-based, Homo sapiens;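 further: growth inhibition of CAL-62 cells, read out with a cell viability assay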
Description: SANGER: Inhibition of human CAL-62 cell growth in a cell viability assay.

[51] = system: 23132-87; assay: cells; assay type: functional, cell-based, Homo sapiens
Description: SANGER: Inhibition of human 23132-87 cell growth in a cell viability assay.

[52] = system: SJRH30; assay: cells; assay type: functional, cell-based; settings: Homo sapiens;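 further: growth inhibition of human SJRH30 cells, read out with a cell viability assay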
Description: SANGER: Inhibition of human SJRH30 cell growth in a cell viability assay.

[53] = system: OC-314; assay: cells; assay type: functional, cell-based; settings: Homo sapiens
Description: SANGER: Inhibition of human OC-314 cell growth in a cell viability assay.

[54] = system: DU-145; assay: cells; assay type: functional, cell-based, Homo sapiens
Description: SANGER: Inhibition of human DU-145 cell growth in a cell viability assay.

[55] = system: NCI-H2029; assay: cells; assay type: functional, cell-based; settings: Homo sapiens;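 further: Read-out is a viability assay on the cultured cells, and IC50 is the concentration that suppresses cell growth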
Description: SANGER: Inhibition of human NCI-H2029 cell growth in a cell viability assay.

[56] = system: NCI-H2405; assay: cells; assay type: functional, cell-based, Homo sapiens;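 further: growth inhibition of the human cell line, read out with a cell viability assay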
Description: SANGER: Inhibition of human NCI-H2405 cell growth in a cell viability assay.

[57] = system: H-EMC-SS; assay: cells; assay type: functional, cell-based; settings: Homo sapiens
Description: SANGER: Inhibition of human H-EMC-SS cell growth in a cell viability assay.

[58] = system: Panc1005; assay: cells; assay type: functional, cell-based, Homo sapiens;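 further: growth inhibition of human PANC-10-05 cells, measured by a cell viability assay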
Description: SANGER: Inhibition of human PANC-10-05 cell growth in a cell viability assay.

[59] = system: ZR-75-30; assay: cells; assay type: functional, cell-based; settings: Homo sapiens;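 further: growth inhibition of ZR-75-30 cells, measured with a cell viability readout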
Description: SANGER: Inhibition of human ZR-75-30 cell growth in a cell viability assay.

With `CCC(=O)N1CCN(c2ccc(-n3c(=O)ccc4cnc5ccc(-c6cnc7ccccc7c6)cc5c43)cc2C(F)(F)F)CC1` [TORIN1] the IC50 [1] was 0.00696 µM, the IC50 [2] was greater than 1.2 µM and the IC50 [3] was 0.0637 µM. For the same compound, the IC50 [4] was 0.288 µM, the IC50 [5] was 0.0779 µM and the IC50 [6] was 0.189 µM. It also gave an IC50 ([7]; Homo sapiens, KNS-81-FD) of 0.113 µM, an IC50 [8] of 0.543 µM and an IC50 ([9]; Homo sapiens, A704) of 0.0974 µM. It also gave an IC50 [10] greater than 1.2 µM, an IC50 [11] of 0.302 µM and an IC50 [12] greater than 1.2 µM. The IC50 [13] was 0.108 µM, the IC50 [14] was 0.108 µM and the IC50 [15] was 1.16 µM. It also gave an IC50 [16] greater than 1.2 µM, an IC50 [17] of 1.04 µM and an IC50 [18] of 1.19 µM. It also gave an IC50 [19] greater than 1.2 µM, an IC50 [20] greater than 1.2 µM and an IC50 ([21]; Homo sapiens, SW872) of 0.0225 µM. The IC50 [22] was 0.011 µM, the IC50 [23] was 0.382 µM and the IC50 [24] was 0.4 µM. For the same compound, the IC50 [25] was greater than 1.2 µM, the IC50 [26] was 0.0728 µM and the IC50 [27] was 0.0217 µM. It also gave an IC50 [28] of 0.478 µM, an IC50 [29] of 0.587 µM and an IC50 ([30]; Homo sapiens, NCI-H1648) of 0.0362 µM. The IC50 [31] was 0.0154 µM, the IC50 [32] was greater than 1.2 µM and the IC50 [33] was 0.302 µM. For the same compound, the IC50 [34] was greater than 1.2 µM, the IC50 [35] was greater than 1.2 µM and the IC50 [36] was 0.118 µM. It also gave an IC50 ([37]; Homo sapiens, LAN-6) greater than 1.2 µM, an IC50 [38] of 0.697 µM and an IC50 [39] of 0.0114 µM. For the same compound, the IC50 [40] was 0.0536 µM, the IC50 [41] was 0.301 µM and the IC50 [42] was 0.141 µM.

In the case of `Cc1cc([C@@H](C)Nc2ccccc2C(=O)O)c2nc(N3CCOCC3)cc(=O)n2c1` [AZD-6482], the IC50 [1] is reported as greater than 5.12 µM, the IC50 [2] is reported as greater than 5.12 µM and the IC50 [3] is reported as greater than 5.12 µM. It also gave an IC50 [4] of 0.644 µM, an IC50 [5] greater than 5.12 µM and an IC50 [6] greater than 5.12 µM. For the same compound, the IC50 ([7]; kns-81-fd) was greater than 5.12 µM, the IC50 [8] was greater than 5.12 µM and the IC50 ([9]; a704) was > 5.12 µM and 3.31 µM. The IC50 [10] was greater than 5.12 µM, the IC50 [11] was greater than 5.12 µM and the IC50 [12] was greater than 5.12 µM. For the same compound, the IC50 [13] was greater than 5.12 µM, the IC50 [14] was greater than 5.12 µM and the IC50 [15] was greater than 5.12 µM. For the same compound, the IC50 [16] was greater than 5.12 µM, the IC50 [17] was greater than 5.12 µM and the IC50 [18] was greater than 5.12 µM. It also gave an IC50 [19] greater than 5.12 µM, an IC50 ([43]; 8505c) greater than 5.12 µM and an IC50 ([44]; Homo sapiens, OAW-28) greater than 5.12 µM. For the same compound, the IC50 ([44]; oaw-28) was greater than 5.12 µM, the IC50 [20] was greater than 5.12 µM and the IC50 ([45]; hn) was greater than 5.12 µM. For the same compound, the IC50 ([46]; huo9) was 1.61 µM and > 5.12 µM, the IC50 ([21]; sw872) was > 5.12 µM and 3.09 µM and the IC50 ([47]; Homo sapiens, SAOS-2) was greater than 5.12 µM. It also gave an IC50 ([47]; saos-2) greater than 5.12 µM, an IC50 [22] of 0.705 µM and an IC50 ([48]; Homo sapiens, NCI-H810) greater than 5.12 µM. For the same compound, the IC50 ([48]; nci-h810) was greater than 5.12 µM, the IC50 [23] was greater than 5.12 µM and the IC50 [24] was 3.32 µM. The IC50 ([49]; Homo sapiens, CAL-33) was 1.49 µM, the IC50 ([49]; cal-33) was 2.55 µM and the IC50 [25] was greater than 5.12 µM. For the same compound, the IC50 [26] was greater than 5.12 µM, the IC50 ([50]; cal-62) was greater than 5.12 µM and the IC50 [27] was greater than 5.12 µM. It also gave an IC50 [51] of 3.36 µM, an IC50 ([51]; Homo sapiens) greater than 5.12 µM and an IC50 [28] greater than 5.12 µM. It also gave an IC50 [29] greater than 5.12 µM, an IC50 ([30]; Homo sapiens, NCI-H1648) greater than 5.12 µM and an IC50 ([30]; nci-h1648) greater than 5.12 µM. It also gave an IC50 [52] greater than 5.12 µM, an IC50 [31] of 4.57 µM and an IC50 [53] greater than 5.12 µM. For the same compound, the IC50 [32] was greater than 5.12 µM, the IC50 ([54]; du-145) was > 5.12 µM and 1.37 µM and the IC50 [55] was greater than 5.12 µM. The IC50 [34] was greater than 5.12 µM, the IC50 [35] was greater than 5.12 µM and the IC50 [36] was 4.18 µM. For the same compound, the IC50 ([56]; nci-h2405) was greater than 5.12 µM, the IC50 [57] was greater than 5.12 µM and the IC50 ([37]; lan-6) was greater than 5.12 µM. For the same compound, the IC50 [38] was greater than 5.12 µM, the IC50 ([58]; panc1005) was 2.1 µM and > 5.12 µM and the IC50 [40] was greater than 5.12 µM. It also gave an IC50 [41] greater than 5.12 µM and an IC50 [42] greater than 5.12 µM.

Compound `O=c1cc(-c2cccc3c2Sc2ccccc2S3)oc(N2CCOCC2)c1` [KU-55933] has an IC50 ([7]; Homo sapiens, KNS-81-FD) greater than 10 µM, an IC50 ([9]; Homo sapiens, A704) greater than 10 µM and an IC50 [16] greater than 10 µM. It also gave an IC50 [19] greater than 10 µM, an IC50 ([43]; Homo sapiens, 8505C) greater than 10 µM and an IC50 ([44]; Homo sapiens, OAW-28) greater than 10 µM. For the same compound, the IC50 ([45]; Homo sapiens, HN) was greater than 10 µM, the IC50 ([46]; Homo sapiens, HuO9) was greater than 10 µM and the IC50 ([21]; Homo sapiens, SW872) was greater than 10 µM. For the same compound, the IC50 ([47]; Homo sapiens, SAOS-2) was greater than 10 µM, the IC50 ([48]; Homo sapiens, NCI-H810) was greater than 10 µM and the IC50 [24] was greater than 10 µM. It also gave an IC50 ([49]; Homo sapiens, CAL-33) greater than 10 µM, an IC50 ([50]; Homo sapiens, CAL-62) greater than 10 µM and an IC50 [27] of 4.58 µM. The IC50 ([51]; Homo sapiens) was greater than 10 µM, the IC50 ([30]; Homo sapiens, NCI-H1648) was greater than 10 µM and the IC50 [52] was greater than 10 µM. It also gave an IC50 [59] greater than 10 µM, an IC50 [53] greater than 10 µM and an IC50 ([54]; Homo sapiens, DU-145) of 3.27 µM. The IC50 [55] was greater than 10 µM, the IC50 [35] was greater than 10 µM and the IC50 ([56]; Homo sapiens, NCI-H2405) was greater than 10 µM. The IC50 [57] was greater than 10 µM, the IC50 ([37]; Homo sapiens, LAN-6) was greater than 10 µM and the IC50 [39] was greater than 10 µM. For the same compound, the IC50 ([58]; Homo sapiens, Panc1005) was greater than 10 µM and the IC50 [42] was greater than 10 µM.
